Data from patent publication US20250170118A1, “PHARMACEUTICAL COMPOSITION FOR PREVENTING OR TREATING WET AGE-RELATED MACULAR DEGENERATION” (UIF (University Industry Foundation), Yonsei University, priority 2023, published 2025).

Experiments:
Type in all cases: in vivo, C57BL/6 J mice
[1] = system: choroidal neovascularization (CNV) mouse model; test: Laser-induced choroidal neovascularization (CNV) mouse model of wet AMD: size of neovascularization (FFA, Isolectin B4 staining); details: 7 days after laser; for size of neovascularization compared to the PBS control group: NMN/NR 500 mg per kg i.p. daily for 10 days, Aflibercept intravitreal, FFA and Isolectin B4 staining, p<0.001 vs PBS
Experimental: (§1) In this study, 8-week-old (18-20 g) C57BL/6 J adult mice were used. The mice were maintained according to the guidelines for the use of animals in ophthalmic and vision research set forth by the Association for Research in Vision and Ophthalmology (ARVO). All animal experiments were approved by the Institutional Animal Care and Use Committee (IACUC) of Yonsei University College of Medicine (IACUC number: 2022-0279). C57BL/6 J mice were maintained on a 12:12 hour light/dark cycle.
(§2) Mice were anesthetized using a 1:1 mixture of tiletamine and zolazepam (15 mg per kg body weight) along with Xylazine hydrochloride (10 mg per kg body weight). The pupils were dilated using Phenylephrine (0.5%) and tropicamide (0.5%). During the anesthesia and pupil dilation, a heating pad was used to maintain the body temperature at 37° C.
(§3) After confirming pupil dilation, the mice were positioned on the support of the laser device (GYC-1000 Specifications, 532 nm). A drop of 2% Hypromellose solution was placed on the corneal surface, and a glass cover slip was positioned to contact the cornea for visualization of the fundus. Additionally, the height and distance of the support were adjusted to ensure the laser was accurately positioned on the retina.
(§4) The settings for the laser used in the experiment were as follows: output: 150 mW/spot size: 50 μm, time: 50 ms. After positioning the optic nerve in the center, the laser direction was indicated using a clock face, applying a total of 4 laser shocks at the 3 o'clock, 6 o'clock, 9 o'clock, and 12 o'clock positions, once each. The successful performance of the laser shock was confirmed by the generation of bubbles in the retina, with no hemorrhage observed in the retina.
(§5) To compare the choroidal neovascularization (CNV) induced by the laser shock, mice were sacrificed 7 days after the laser shock, and to evaluate the fibrosis induced by the laser shock in the sub-retinal area, mice were sacrificed 4 weeks after the laser shock.
In this study, Nicotinamide mononucleotide (NMN) purchased from ORIENTAL YEAST CO and Nicotinamide riboside (NR) purchased from ChromaDex were used. Starting three days before the creation of the laser-induced mouse model, NMN and NR were administered intraperitoneally daily at a concentration of 500 mg per kg of body weight. […]
After the staining process was completed, the flat-mounted tissue was spread on the slide, a drop of mounting media was applied, and a glass cover was placed over it. Fluorescent images were taken using a fluorescence microscope (Olympus; BX43).
(§6) The size of neovascularization and fibrotic areas was measured using ImageJ software. […] Then, a threshold was applied to measure the size, followed by quantification of pixels. […]

subretinal fibrosis = test: Subretinal fibrosis in laser-induced neovascular wet macular degeneration model (Collagen type I staining, OCT); details: for expression of Collagen type 1 compared to the PBS negative control group: 500 mg per kg i.p. daily from three days prior, NMN vs PBS p<0.001, NR vs PBS p<0.002; for production of subretinal fibrosis associated with neovascular macular degeneration: FIG. 3 legend
Experimental: as §1, §2, §3, §4, §5
(§7) In this study, Nicotinamide mononucleotide (NMN) purchased from ORIENTAL YEAST CO and Nicotinamide riboside (NR) purchased from ChromaDex were used. Starting three days before the creation of the laser-induced mouse model, NMN and NR were administered intraperitoneally daily at a concentration of 500 mg per kg of body weight.
(§8) Mice were sacrificed using carbon dioxide, and the extracted eyeballs were fixed in 1% paraformaldehyde for 1 hour. After fixation, they were sequentially treated with 10%, 20%, and 30% sucrose solutions for 1 hour each. For sectioning, the eyeballs were positioned so that the connection between the optic nerve and the center of the cornea was horizontally aligned using OCT compound, and rapid freezing was performed using liquid nitrogen vapor. The eyeballs were stored at −70° C.
(§9) The eyeballs were sectioned to a thickness of […], and thereafter, staining procedures were performed using primary and secondary antibodies. After staining, a drop of mounting media was applied to the tissue on the slide, and a cover glass was placed over it.
For flat mounting, the muscle, cornea, lens, and neural retina were removed. Then, the retinal pigment epithelium/choroid/sclera complex was radially incised eight times to create a petal-like structure. It was placed in a 1 ml microtube and stained with primary and secondary antibodies. […]
as §6

[2] = system: senescence markers p16INK4a, p21CIP1, γ-H2AX, p53 and SA-β-gal in retinal pigment epithelium/choroid/sclera complex; test: Senescence phenotype in laser-induced neovascular wet AMD model (SA-β-gal staining, immunofluorescence of senescence markers)
Experimental: as §1, §2, §3, §4, §7, §8, §9
The primary antibodies used in this study are as follows: Isolectin GS-IB4, Alexa Fluor™ 488 conjugate (121411); Collagen I antibody (ab34710); p16INK4a antibody (ab108349); gamma H2A.X antibody (ab2893); p53 antibody (sc-126); p21CIP1 antibody (sc-6246).
Mouse eyes were enucleated, and the anterior segments were removed to isolate the retinal pigment epithelium/choroid/sclera complex. The complex was rinsed with cold PBS and then fixed at room temperature for 20 minutes using the fixative solution provided in the SA-β-galactosidase (SA-β-GAL) staining kit. Staining was performed using the staining solution mixture provided according to the manufacturer's instructions (BioVision; #K320). After overnight staining at 37° C., the samples were incubated at 55° C. for 45 minutes with 10% H2O2 to remove the pigment. Following rinsing with PBS, the samples were flattened using forceps and a surgical knife. Images were captured using a fluorescent microscope (Olympus; BX43).
SA-β-gal staining analysis, an early method for identifying senescent cells in tissues, was used. Additionally, the expression of senescence markers such as p16INK4a, p21CIP1, γ-H2AX, and p53 is increased in senescent cells. […]

[3] = seventh day post-laser induction, immunofluorescence staining

Compound	size of neovascularization compared to the PBS control group [1]	expression of Collagen type 1 compared to the PBS negative control group (subretinal fibrosis; 28th day post-laser shock)	production of subretinal fibrosis associated with neovascular macular degeneration (subretinal fibrosis)	aging phenotype induced in a neovascular wet AMD model ([2]; FIG. 2 legend)	SA-β-gal staining of the retinal pigment epithelium/choroid/sclera complex compared to the PBS group ([2]; seventh day post-laser induction, NMN 500 mg per kg i.p. daily)	expression of p16INK4a protein compared to PBS [2, 3]	expression of p21CIP1 protein compared to PBS [2, 3]	expression of p53 protein compared to PBS [2, 3]	expression of γ-H2AX protein compared to PBS [2, 3]	fibrosis by OCT and immunofluorescence staining on sections compared to the negative control group (subretinal fibrosis; 28th day post-laser shock, 500 mg per kg i.p. daily)	neovascular size compared to the NMN and NR groups ([1]; Aflibercept vs NMN p>0.99, Aflibercept vs NR p>0.99)
NC(=O)c1ccc[n+]([C@@H]2O[C@H](CO)[C@@H](O)[C@H]2O)c1 [NR, nicotinamide riboside]	significantly reduced	significantly reduced	inhibit	–	–	–	–	–	–	–	–
nicotinamide mononucleotide [NMN]	significantly reduced	significantly reduced	inhibit	inhibits	reduced	decreased	decreased	decreased	decreased	reduced	–
Aflibercept [reference compound]	significant reduction	–	–	–	–	–	–	–	–	–	no significant difference
